Counter-ions that a name gives are not always drawn. Like-named read-outs stand apart in the source and are kept apart here.
What was measured:
[1] = target: NR1a/NR2B (Rattus norvegicus, UniProt P35439+Q00960); test: Electrophysiological assay at NMDA receptor subunits expressed in Xenopus oocytes (two-electrode voltage clamp); format: cell-based
Method: The clones were transformed into appropriate host bacteria and plasmid preparations were made with conventional DNA purification techniques. A sample of each clone was linearized by restriction enzyme digestion […] was synthesized with T3 RNA polymerase. The cRNA was diluted to 400 ng/μL and stored in 1 μL aliquots at −80° C. until injection.
The Xenopus Oocyte Expression System. […] Follicle-enclosed oocytes were micro-injected with 1:1 mixtures of NR1A:NR2A, 2B or 2C.; injecting 1 to 10 ng of RNA encoding each receptor subunit. NR1A encoding RNA was injected alone at ˜20 ng. Oocytes were stored in Barth's medium containing (in mM): NaCl, 88; KCl, 1; CaCl2, 0.41; Ca (NO3)2, 0.33; MgSO4, 0.82; NaHCO3, 2.4; HEPES 5, pH 7.4, with 0.11 mg/ml gentamicin sulphate. While oocytes were still surrounded by enveloping ovarian tissues, the Barth's medium was supplemented with 0.1% bovine serum.
Drugs were applied by bath perfusion. Using oocytes expressing different subunit combinations of NMDA receptor, NMDA currents were activated by co-application of glutamate (100 μM) and glycine (1-100 μM). Inhibitory potency of the novel antagonists was assessed on responses elicited by fixed concentrations of glutamate and glycine, by measuring reductions in current induced by progressively increasing concentrations of antagonist.
Concentration-inhibition curves were fit with Equation 1. […] For incomplete curves analysis by fitting was unreliable and IC50 values were calculated by simple regression over linear portions of the curves (Origin: Microcal Software).

[2] = Table 1, cloned rat NMDA receptor subunits in Xenopus oocytes, currents activated by glutamate (100 μM) and glycine (1-100 μM), read-out: NR1a/NR2B Oocyte IC50
[3] = Table 2, head names no subunit, electrophysiological assay results, read-out: IC50
[4] = Table 3, cloned rat NMDA receptor subunits in Xenopus oocytes, read-out: NR1a/NR2B Oocyte IC50

Chain of NR1a/NR2B (Q00960 27-1482, other chains not shown): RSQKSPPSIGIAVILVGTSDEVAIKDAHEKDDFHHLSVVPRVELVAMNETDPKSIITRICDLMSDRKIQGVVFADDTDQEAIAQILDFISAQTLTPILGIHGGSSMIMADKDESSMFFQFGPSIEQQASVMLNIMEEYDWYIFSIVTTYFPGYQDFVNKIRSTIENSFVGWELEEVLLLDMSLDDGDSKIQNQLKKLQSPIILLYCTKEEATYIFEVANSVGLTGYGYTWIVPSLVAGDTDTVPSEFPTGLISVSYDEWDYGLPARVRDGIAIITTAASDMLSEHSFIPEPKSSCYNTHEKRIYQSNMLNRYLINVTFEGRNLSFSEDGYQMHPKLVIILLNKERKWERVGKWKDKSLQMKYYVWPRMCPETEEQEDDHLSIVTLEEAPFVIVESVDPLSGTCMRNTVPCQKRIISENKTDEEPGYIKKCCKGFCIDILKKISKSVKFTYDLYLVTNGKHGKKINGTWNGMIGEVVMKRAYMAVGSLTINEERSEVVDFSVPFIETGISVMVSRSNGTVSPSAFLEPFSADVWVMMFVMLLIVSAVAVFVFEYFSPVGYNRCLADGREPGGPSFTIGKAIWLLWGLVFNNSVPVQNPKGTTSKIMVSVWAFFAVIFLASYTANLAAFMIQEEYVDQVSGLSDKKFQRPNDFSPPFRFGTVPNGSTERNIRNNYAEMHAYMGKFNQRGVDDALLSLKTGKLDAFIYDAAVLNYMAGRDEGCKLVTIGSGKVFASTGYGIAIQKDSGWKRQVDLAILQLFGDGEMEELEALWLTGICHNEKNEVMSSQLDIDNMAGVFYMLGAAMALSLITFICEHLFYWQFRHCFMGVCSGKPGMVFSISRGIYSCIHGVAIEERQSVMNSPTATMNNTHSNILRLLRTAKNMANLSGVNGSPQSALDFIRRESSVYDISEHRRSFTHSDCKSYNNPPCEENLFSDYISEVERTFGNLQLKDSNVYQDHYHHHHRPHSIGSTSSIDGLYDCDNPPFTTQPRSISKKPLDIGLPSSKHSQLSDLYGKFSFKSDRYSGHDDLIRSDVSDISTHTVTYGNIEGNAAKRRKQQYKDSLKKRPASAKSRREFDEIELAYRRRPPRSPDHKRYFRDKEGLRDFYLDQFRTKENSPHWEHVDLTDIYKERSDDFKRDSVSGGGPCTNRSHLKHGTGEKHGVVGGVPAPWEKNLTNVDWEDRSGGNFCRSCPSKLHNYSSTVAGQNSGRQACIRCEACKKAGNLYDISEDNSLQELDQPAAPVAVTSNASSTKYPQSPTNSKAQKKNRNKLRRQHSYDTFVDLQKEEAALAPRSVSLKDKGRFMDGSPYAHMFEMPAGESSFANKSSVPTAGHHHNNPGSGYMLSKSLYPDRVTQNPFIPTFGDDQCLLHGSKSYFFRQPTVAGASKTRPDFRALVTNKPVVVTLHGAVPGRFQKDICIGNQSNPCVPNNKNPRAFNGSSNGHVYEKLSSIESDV

Compound	IC50 [1, 3] [µM]	melting point [°C]	further results
Oc1ccc([C@H]2CC[C@H](NCCCc3ccccc3)CC2)cc1 [Example 2b, trans-4-[4-(3-Phenylpropylamino)cyclohexyl]phenol]	–	–	IC50 [1, 2]: 0.034 µM
Oc1ccc([C@H]2CC[C@H](NCC#Cc3ccccc3)CC2)cc1 [Example 23, Trans-4-[4-(3-phenylprop-2-ynylamino)cyclohexyl]phenol]	0.05	–	–
Oc1ccc([C@H]2CC[C@H](NCCc3ccc(F)cc3)CC2)cc1 [Example 5b, trans-4-{4-[2-(4-Fluorophenyl)ethylamino]cyclohexyl}phenol]	–	–	IC50 ([1]; Table 4, cloned rat NMDA receptor subunits in Xenopus oocytes, read-out: NR1a/NR2B Oocyte IC50): 0.75 µM
CC(C)N(CCCc1ccccc1)[C@H]1CC[C@H](c2ccc(O)cc2)CC1 (as salt: salt) [Example 27, Trans-4-{4-[N-isopropyl-N-(3-phenylpropyl)amino]cyclohexyl}phenol]	–	146 to 154	–
Oc1ccc([C@H]2CC[C@H](NCCCCCc3ccccc3)CC2)cc1 [Example 9, 4-[4-(5-Phenylpentylamino)cyclohexyl]phenol]	–	–	IC50 [1, 2]: 0.35 µM
OC[C@@H](Cc1ccccc1)N[C@H]1CC[C@@H](c2ccc(O)cc2)CC1 [Example 10a, cis-4-[4-((R)-1-Hydroxymethyl-2-phenylethylamino)cyclohexyl]phenol]	29	–	–
C[C@H](CCc1ccccc1)N[C@H]1CC[C@H](c2ccc(O)cc2)CC1 [Example 6c, trans-4-[4-((R)-1-Methyl-3-phenylpropylamino)cyclohexyl]phenol]	0.06	152 to 160	–
CN(CCOc1ccccc1)[C@H]1CC[C@H](c2ccc(O)cc2)CC1 (as salt: salt) [Example 30, 4-{4-[methyl(2-phenoxyethyl)amino]cyclohexyl}phenol]	–	216 to 220	–
O=C(CCc1ccccc1)N[C@H]1CC[C@H](c2ccc(O)cc2)CC1 [Example 21, Trans-N-[4-(4-Hydroxyphenyl)cyclohexyl]-3-phenylpropionamide]	0.07	201 to 206	–
CC(=O)N(Cc1ccccc1)[C@H]1CC[C@H](c2ccc(O)cc2)CC1 [Example 16, trans-N-Benzyl-N-[4-(4-hydroxyphenyl)cyclohexyl]acetamide]	200	227 to 235	–
Oc1ccc([C@H]2CC[C@H](NCCCCc3ccccc3)CC2)cc1 [Example 1b, trans-4-[4-(4-Phenylbutylamino)cyclohexyl]phenol]	–	–	IC50 [1, 2]: 0.035 µM
Oc1ccc([C@H]2CC[C@H](NCCOc3ccccc3)CC2)cc1 [Example 11b, trans-4-[4-(2-Phenoxyethylamino)cyclohexyl]phenol]	0.02	–	–
Oc1ccc([C@H]2CC[C@@H](NCc3ccccc3)CC2)cc1 [Example 4a, cis-4-(4-Benzylaminocyclohexyl)phenol]	–	107 to 110	IC50 [1, 2]: 70 µM
Oc1ccc([C@H]2CC[C@@H](NCCCc3ccccn3)CC2)cc1 [Example 15a, cis-4-[4-(3-Pyridin-2-ylpropylamino)cyclohexyl]phenol]	–	–	IC50 [1, 4]: 11.5 µM
C[C@@H](Cc1ccccc1)N[C@H]1CC[C@H](c2ccc(O)cc2)CC1 [Example 13, trans-4-[4-((S)-1-Methyl-2-phenylethylamino)cyclohexyl]phenol]	16	183 to 187	–
Oc1ccc([C@H]2CC[C@@H](NCCCCc3ccccc3)CC2)cc1 [Example 1a, cis-4-[4-(4-Phenylbutylamino)cyclohexyl]phenol]	–	128 to 131	IC50 [1, 2]: 0.9 µM
Oc1ccc([C@H]2CC[C@@H](NCc3cccnc3)CC2)cc1 [Example 7a, cis-4-{4-[(Pyridin-3-ylmethyl)amino]cyclohexyl}phenol]	–	–	IC50 [1, 4]: 135 µM
Oc1ccc([C@H]2CC[C@H](NCc3ccccc3)CC2)cc1 [Example 4b, trans-4-(4-Benzylaminocyclohexyl)phenol]	–	168 to 172	IC50 [1, 2]: 43 µM
CC(=O)N(CCCc1ccccc1)[C@H]1CC[C@H](c2ccc(O)cc2)CC1 [Example 17, trans-N-[4-(4-Hydroxyphenyl)cyclohexyl]-N-(3-phenylpropyl)acetamide]	4.4	175 to 180	–
CC(CCc1ccccc1)N[C@H]1CC[C@@H](c2ccc(O)cc2)CC1 (stereo partly drawn) [Example 6a, cis-4-[4-(1-Methyl-3-phenylpropylamino)cyclohexyl]phenol]	0.6	–	–

Compound	IC50 [1, 3] [µM]	melting point [°C]	further results
CC(CCc1ccccc1)N[C@H]1CC[C@H](c2ccc(O)cc2)CC1 (stereo partly drawn) [Example 6b, trans-4-[4-(1-Methyl-3-phenylpropylamino)cyclohexyl]phenol]	0.1	–	–
Oc1ccc([C@H]2CC[C@@H](NCCCc3ccccc3)CC2)cc1 [Example 2a, cis-4-[4-(3-Phenylpropylamino)cyclohexyl]phenol]	–	–	IC50 [1, 2]: 0.6 µM
COC(=O)N(CCCc1ccccc1)[C@H]1CC[C@H](c2ccc(O)cc2)CC1 [Example 18, Trans-N-[4-(4-Hydroxyphenyl)cyclohexyl]-N-(3-phenylpropyl)carbamic acid methyl ester]	0.05	128 to 133	–
CCN(CCCc1ccccc1)[C@H]1CC[C@H](c2ccc(O)c(CN)c2)CC1 (as salt: HCl) [Example 31, 2-aminomethyl-4-{4-[ethyl(3-phenylpropyl)amino]cyclohexyl}phenol]	–	168 to 173	–
Oc1ccc([C@H]2CC[C@H](N(CCCc3ccccc3)Cc3ccccc3)CC2)cc1 (as salt: HCl) [Example 29, 4-{4-[benzyl(3-phenylpropyl)amino]cyclohexyl}phenol]	–	259 to 264	–
Oc1ccc([C@H]2CC[C@H](NCCNc3ccccc3)CC2)cc1 (as salt: maleate) [Example 25, Trans-4-[4-(2-phenylaminoethylamino)cyclohexyl]phenol]	–	180 to 184	–
Oc1ccc([C@H]2CC[C@H](NCCc3ccccc3)CC2)cc1 [Example 3b, trans-4-(4-Phenethylamiocyclohexyl)phenol]	–	–	IC50 [1, 2]: 0.45 µM
Oc1ccc([C@H]2CC[C@@H](NCCc3ccccc3)CC2)cc1 [Example 3a, cis-4-(4-Phenethylaminocyclohexyl)phenol]	–	155 to 160	IC50 [1, 2]: 0.83 µM
CCN(CCCc1ccccc1)[C@H]1CC[C@H](c2ccc(O)cc2)CC1 (as salt: salt) [Example 26, Trans-4-{4-[N-ethyl-N-(3-phenylpropyl)amino]cyclohexyl) phenol]	–	192 to 194	–
Oc1ccc([C@H]2CC[C@@H](NCCOc3ccccc3)CC2)cc1 [Example 11a, cis-4-[4-(2-Phenoxyethylamino)cyclohexyl]phenol]	2	–	–
COC(=O)N(Cc1ccccc1)[C@H]1CC[C@H](c2ccc(O)cc2)CC1 [Example 19, Trans-N-benzyl-N-[4-(4-hydroxyphenyl)cyclohexyl]carbamic acid methyl ester]	240	61 to 66	–
Oc1ccc([C@H]2CC[C@H](NCc3cccnc3)CC2)cc1 [Example 7b, trans-4-{4-[(Pyridin-3-ylmethyl)amino]cyclohexyl}phenol]	–	–	IC50 [1, 4]: 100 µM
CC(C)(Oc1ccccc1)C(=O)N[C@H]1CC[C@H](c2ccc(O)cc2)CC1 [Example 22, Trans-N-[4-(4-Hydroxyphenyl)cyclohexyl]-2-methyl-2-phenoxy-propionamide]	301	114 to 117	–
COc1ccc(CCCN[C@H]2CC[C@H](c3ccc(O)cc3)CC2)cc1 (as salt: HCl) [Example 28, Trans-4-{4-[3-(4-methoxyphenyl)propylamino]cyclohexyl}phenol]	–	235 to 241	–
OC[C@@H](Cc1ccccc1)N[C@H]1CC[C@H](c2ccc(O)cc2)CC1 [Example 10b, trans-4-[4-((R)-1-Hydroxymethyl-2-phenylethylamino)cyclohexyl]phenol]	5	–	–
Oc1ccc([C@H]2CC[C@H](NCCCCCc3ccccc3)CC2)cc1 (as salt: HCl) [Example 9, 4-[4-(5-Phenylpentylamino)cyclohexyl]phenol]	–	252 to 260	–
C[C@@H](CCc1ccccc1)N[C@H]1CC[C@H](c2ccc(O)cc2)CC1 [Example 6d, trans-4-[4-((S)-1-Methyl-3-phenylpropylamino)cyclohexyl]phenol]	0.07	165 to 170	–
Oc1ccc([C@H]2CC[C@H](NCCNc3ccccc3)CC2)cc1 [Example 25, Trans-4-[4-(2-phenylaminoethylamino)cyclohexyl]phenol]	0.05	–	–
Oc1ccc([C@H]2CC[C@H](NCCCc3ccccn3)CC2)cc1 [Example 15b, trans-4′-(3-Pyridin-2-ylpropylamino)cyclohexylphenol]	–	–	IC50 [1, 4]: 0.53 µM
Oc1ccc([C@H]2CC[C@H](NCCSc3ccccc3)CC2)cc1 [Example 24, 4-[4-(2-Phenylsulfanylethylamino)cyclohexyl]phenol]	0.04	–	–

From patent US6919377B2, “Cyclohexylamine derivative as subtype selective NMDA receptor antagonists” (Warner Lambert Company LLC, priority 2000, dated 2005)
